Earlier results as cited in US11773111B1, “Selective 5-LO inhibitors for the treatment of bronchial asthma” (KING FAISAL UNIVERSITY, priority 2022, dated 2023).

Tests used:
[1] = not given; remark: listed apart in the source
[2] = clinical use

For `CC(c1cc2ccccc2s1)N(O)C(N)=O` (stereo not drawn) [Zileuton], the plasma protein binding is listed as 93%, the serum half-life [1] is listed as 3 h and the undesirable side effects [2] is listed as “hepatoxicity”.
